Results published in publication PMC12454603 (Archives of Toxicology, 2025).

Assays:
[1] = In vivo kinetic study, intravenous 50 mg/kg bw, blood concentrations; conditions: rat, 50 mg/kg bw parent PAH
Description: Six male Sprague–Dawley rats at the age of 8–9 weeks weighing 286-305g/rat were obtained from Charles River Inc (Beijing, China). The rats were maintained in plastic cages in two groups of three in a temperature-controlled (ranging from 20 °C to 25 °C) and humidity-controlled (ranging from 40–70%) environment on a 12-h light–dark cycle. The animal bedding was corncob and used after autoclaving. The bedding and the cages were changed twice a week. The number of animals was restricted to 3 per dose group and control blood samples were collected before dosing. Feeding and living conditions followed the Chinese Laboratory Animal-Requirement of environment and housing facilities (GB14925-2010). The present rat study was approved by Institutional Animal Care and Use Committee (IACUC-BF202305006).
All animals were fasted 8 h before intravenous injection and resumed feed supply 4 h after dosing.
After administration, blood samples (0.1–0.2 ml blood volume) were taken from the medial canthus venous plexus of the animal and anticoagulated with sodium heparin. Prior to orbital venipuncture and blood collection, the animals were anesthetized by CO2 inhalation (70% CO2 + 30% O2). Blood was sampled at 1 min, 0.5, 1, 2, 4, 8, 12, 24, 32, 48, and 72 h post-dosing. After collection, blood samples were frozen and were stored at −20 °C until analysis. All animals were euthanized with 100% CO2 after the experiment.
Aliquots of 100 µL of blood samples were transferred into centrifuge tubes and 700 µL sodium acetate buffer (0.1M, pH 5.0) and 6 µL β-glucuronidase-arylsulfatase were added. The samples were incubated for 1 h at 37 °C and subsequently extracted twice with 800 µL ethyl acetate saturated with water. The samples were shaken for 30 min and centrifuged 5 min at 2000 g (4 °C). The upper organic phase was transferred to a centrifuge tube and evaporated under a gentle stream of nitrogen at 40 ℃ in a water bath. The residues were re-dissolved with 200 µL ascorbic acid:methanol (1:100). […]

[2] = system: ES-D3 cells (differentiation into contracting cardiomyocytes); assay: ES-D3 cell differentiation assay of the mouse embryonic stem cell test (mEST); format: cell-based
Description: The developmental toxicity of the test compounds was assessed by the inhibitory effect on the differentiation of cells of the ES-D3 cell line into contracting cardiomyocytes. The assay was performed essentially as previously described (Kamelia et al. [2020]). The cells were cultured on the lid of a 96-well plate in 45 hanging drops (volume 20 µL/drop) at a concentration of 37,500 cells/ml. The 96 wells were filled with 250 µL PBS to maintain the humidity. Sterile Eppendorf lids were placed at the corners of the 96-well plate to prevent the hanging drops from contacting the 96-well plate. The plates were sealed with micropore tape and incubated at 37 °C with 5% CO2 in a humidified atmosphere for 72 h. After 72 h, 5 ml exposure medium was prepared for each concentration of each test compound with 0.25% DMSO in a 60 × 15 mm petri dish. The formed embryonic bodies (EBs) in the hanging drops on the lid of the 96-well plate were washed off with exposure medium and collected in the petri dish. The Petri dish was subsequently incubated at 37 °C with 5% CO2 in a humidified atmosphere for 48 h. After 48 h, the EBs were transferred to a 24-well plate filled with 1 ml exposure medium per well. Each well contained 1 EB. The 24-well plates were incubated at 37 °C with 5% CO2 in a humidified atmosphere for 120 h. The number of EBs with contracting cardiomyocytes and the undifferentiated EBs were counted under a microscope. In the solvent (DMSO) control, the presence of more than 21 EBs with contracting cardiomyocytes out of 24 EBs indicates a valid assay. In each experiment, 0.5 µM (0.065 µg/ml) 5-FU was used as a positive control. The result of the differentiation assay is expressed as the fraction of differentiated EBs of the total number of EBs.
The concentration–response data for the test compounds in the mEST were presented in three curves including curves for 1-day cytotoxicity, 5-day cytotoxicity, and 10-day differentiation assays. The obtained curves were fitted using the inhibition equation log (inhibitor) vs response (three parameters) option using GraphPad Prism software 5.0 (California, USA).

In the case of `Cc1ccc2c(c1)cc1ccc3c(O)ccc4ccc2c1c43` [3-OH-8-MBaP, 3-Hydroxy-8-methyl-benzo[a]pyrene], the “Observed in vivo Cmax relative to the model prediction (lower)” value [1] is reported as 3.4 fold, the “Observed in vivo blood concentration compared with that of 3-OHBaP” value [1] is reported as “comparable” and the IC50 ([2]; Mus musculus, Cardiomyocyte, 240 h, read-out: IC50 for inhibition of differentiation of ES-D3 cells into beating cardiomyocytes) is reported as 1.4 µM. For the same compound, the “Fold difference between IC50 of 3-OH-8-MBaP and of 3-OHBaP (3-OH-8-MBaP lower)” value ([2]; differentiation assay of the mEST) was 1.1 fold.
